Measurements from patent US20230143604A1, “QW DOSING OF GIP RECEPTOR AGONIST PEPTIDE COMPOUNDS AND USES THEREOF” (TAKEDA PHARMACEUTICAL COMPANY LIMITED, priority 2020, published 2023).
Values joined by “and” are separate entries in the source; they are usually repeats but may differ in a detail not shown here. Equal values may be shown once.

Columns and labels:
female beagle dogs = assay: PYY-1119-induced vomiting in dogs; assay type: in vivo; settings: 3 nmol/kg s.c., 72 hours post-dose (lower line)
Procedure: The GIPR agonist peptide compounds of the present disclosure or vehicle (0.09% [w/v] Tween 80/10% DMSO/PBS) were administered subcutaneously (sc) at 3-10 nmol/kg to female beagle dogs (10 months old), followed by sc injections with Y2R agonist ((4-imidazolecarbonyl-Ser-D-Hyp-Iva-Pya(4)-Cha-Leu(Me)-Asn-Lys-Aib-Thr-Arg-Gln-Arg-Cha-NH2), […]), […]) at 1 hour or specified hours in the table postdose. Emetic episodes were counted for 2 hours after administration (by blinded analysis).

physchem = assay: physchem
Summary of the method: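 Solubility at pH 7.4 determined by stepwise addition of 200 mM phosphate buffer in 100 μL increments to 3 mg peptide, mixing briefly each time, until no insoluble material remained, then measured by liquid chromatography.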

male ferrets = assay type: in vivo
Procedure: 1. Effect of subcutaneously administered GIP receptor agonist peptide in morphine-induced acute emetic model.
To evaluate the antiemetic effect, the GIP receptor agonist peptides other than natural human GIP are subcutaneously administered into male ferrets 24 hrs before morphine administration. Up to 60 minutes after morphine administration, the condition of the ferrets is monitored to record the frequencies and time points of abdominal contraction motions, vomiting behaviors, licking with the tongue, and fidgety behavior occurring. GIP receptor agonist peptide compounds of the present disclosure dosed at 0.3-10 nmol/kg attenuated the morphine (0.6 mg/kg, s.c.)-induced emesis in the ferrets.
GIP receptor agonist peptides are dissolved with a vehicle (0.09 w/v % tween 80/10% DMSO/saline), respectively, to prepare test solutions. […] of the test solutions and the vehicle are subcutaneously administered to ferrets (4 in each group), respectively. At the time of each of 4 or 24 hours after administration, 0.6 mg/kg of morphine is subcutaneously administered.

C57BL/6J mice = assay: Oral glucose tolerance test (OGTT); assay type: in vivo; settings: 3 nmol/kg s.c., 24 hours before glucose loading
Summary of the method: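 Peptide or vehicle given s.c. at 0.1, 0.3, 3 or 10 nmol/kg (peptide-dependent), 24 h before oral 50% dextrose at 5 ml/kg unless stated otherwise. Blood glucose read at 0, 15, 30 and 60 min. % inhibition = (1−(AUC cpd−AUC naïve)/(AUC veh−AUC naïve))×100.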

CC[C@H](C)[C@H](NC(=O)[C@H](CO)NC(=O)[C@H](Cc1ccc(O)cc1)NC(=O)[C@H](CC(=O)O)NC(=O)[C@H](CO)NC(=O)[C@@H](NC(=O)[C@H](Cc1ccccc1)NC(=O)[C@@H](NC(=O)CNC(=O)[C@H](CCC(=O)O)NC(=O)C(C)(C)NC(=O)[C@H](Cc1ccc(O)cc1)NC)[C@@H](C)O)[C@@H](C)CC)C(=O)N[C@@H](C)C(=O)N[C@@H](CC(C)C)C(=O)N[C@@H](CC(=O)O)C(=O)N[C@@H](CCCNC(=N)N)C(=O)N[C@@H](CCCCNC(=O)CNC(=O)CNC(=O)CNC(=O)CNC(=O)CNC(=O)CCCCCCCCCCCCCCCCC(=O)O)C(=O)N[C@@H](C)C(=O)N[C@@H](CCC(N)=O)C(=O)NC(C)(C)C(=O)N[C@@H](CC(=O)O)C(=O)N[C@@H](Cc1ccccc1)C(=O)N[C@H](C(=O)N[C@@H](CC(N)=O)C(=O)N[C@@H](Cc1c[nH]c2ccccc12)C(=O)N[C@@H](CC(C)C)C(=O)N[C@@H](CC(C)C)C(=O)N[C@@H](C)C(=O)N[C@@H](CCC(N)=O)C(=O)N[C@@H](CO)C(=O)N1CCC[C@H]1C(=O)N[C@@H](CO)C(=O)N[C@@H](CO)C(=O)NCC(=O)N[C@@H](C)C(=O)N1CCC[C@H]1C(=O)N1CCC[C@H]1C(=O)N1CCC[C@H]1C(=O)N[C@@H](CO)C(N)=O)C(C)C [Compound 50, Me-Y-Aib-E-G-T-F-I-S-D-Y-S-I-A-L-D-R-Km-A-Q-Aib-D-F-V-N-W-L-L-A-Q-S-P-S-S-G-A-P-P-P-S-NH2]
Inhibition (%) of PYY-1119-induced emetic event (female beagle dogs): 97% (3 nmol/kg)
solubility (physchem; pH 7.4): ≥ 15 mg/mL
solubility (physchem; pH 7.4, aqueous buffer): ≥ 60 mg/mL
% inhibition of emetic events at doses (nmol/kg) and timepoints shown in ferret morphine model (male ferrets; 4 hrs, 0.3 nmol/kg s.c.): 4 hrs: 27% (0.3 nmol/kg);
effect on morphine-induced emesis in ferrets (in words) (male ferrets; morphine 0.6 mg/kg s.c., peptides dosed at 0.3-10 nmol/kg s.c.): effective in completely inhibiting the frequency of emesis
Oral Glucose Tolerance Test Percent decrease in blood glucose AUC (%) over 60 mins (C57BL/6J mice): 89% and 69%
